This note sets out measurements from ChEMBL document CHEMBL3407421, “Design, synthesis, X-ray crystallographic analysis, and biological evaluation of thiazole derivatives as potent and selective inhibitors of human dihydroorotate dehydrogenase” (J Med Chem, 2015).

Data set [1] is described as follows: Retention time of the compound. In kind it is physicochemical.
The target in data set [2] is T1, Dihydroorotate dehydrogenase (Plasmodium falciparum, UniProt Q54A96).
T1 sequence (Q54A96 whole entry): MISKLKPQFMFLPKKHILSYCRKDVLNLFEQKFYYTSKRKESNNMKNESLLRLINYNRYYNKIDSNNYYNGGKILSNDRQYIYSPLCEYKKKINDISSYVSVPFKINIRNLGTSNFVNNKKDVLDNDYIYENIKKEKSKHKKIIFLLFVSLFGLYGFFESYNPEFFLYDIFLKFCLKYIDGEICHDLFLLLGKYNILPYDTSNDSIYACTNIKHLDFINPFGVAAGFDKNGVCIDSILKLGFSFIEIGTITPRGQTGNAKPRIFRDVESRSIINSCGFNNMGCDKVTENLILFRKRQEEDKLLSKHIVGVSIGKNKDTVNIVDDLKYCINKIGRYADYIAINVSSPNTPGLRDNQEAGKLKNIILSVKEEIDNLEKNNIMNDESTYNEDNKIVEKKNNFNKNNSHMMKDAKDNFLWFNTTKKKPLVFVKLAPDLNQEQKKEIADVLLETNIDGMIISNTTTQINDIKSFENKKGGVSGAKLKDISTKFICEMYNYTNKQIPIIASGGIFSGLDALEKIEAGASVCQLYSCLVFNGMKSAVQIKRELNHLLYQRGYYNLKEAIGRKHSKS
The data set can be described thus: Inhibition of Plasmodium falciparum DHODH using dihydroorotate substrate by DCIP assay.

The target of data set [3] is Dihydroorotate dehydrogenase (quinone), mitochondrial (Homo sapiens, UniProt Q02127).
Dihydroorotate dehydrogenase (quinone), mitochondrial, sequence (Q02127 whole entry): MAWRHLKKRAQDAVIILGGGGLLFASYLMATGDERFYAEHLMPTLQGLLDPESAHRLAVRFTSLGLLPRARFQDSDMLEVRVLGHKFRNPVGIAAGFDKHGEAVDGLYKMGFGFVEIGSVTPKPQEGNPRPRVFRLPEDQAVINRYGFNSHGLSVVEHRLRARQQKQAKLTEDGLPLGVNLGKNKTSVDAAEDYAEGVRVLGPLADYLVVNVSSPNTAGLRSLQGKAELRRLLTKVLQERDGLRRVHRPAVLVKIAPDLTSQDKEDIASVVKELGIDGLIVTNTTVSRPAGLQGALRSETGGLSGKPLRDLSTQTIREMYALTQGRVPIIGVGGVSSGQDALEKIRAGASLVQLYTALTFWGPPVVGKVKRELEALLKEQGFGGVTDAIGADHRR
Description: Inhibition of human DHODH using dihydroorotate substrate by DCIP assay
The next data set deals with Rattus norvegicus. As to the kind of experiment: Toxicity in ip dosed bovine type-2 collagen-induced Wistar rat arthritic model assessed as change in body weight administered as qd for 28 days starting day after immunization. In kind it is organism-based. The conditions noted are these: in vivo, 672 h.

Usually IC50 stands for the concentration at which inhibition is half-maximal. Higher therefore signals weaker potency in that assay. Take `CC(=O)c1sc(Nc2ccc(Br)c(C(F)(F)F)c2)nc1C`: the Retention_time in data set [1] was 16.48 min. Also, the concentration for half-maximal inhibition (IC50) in data set [2] was > 10 µM; in data set [3], 1.93 µM.

In data set [1], `CCOC(=O)c1sc(Nc2ccc(C(F)(F)F)cc2)nc1-c1ccccc1` had a Retention_time of 9.86 min. For the same compound, in data set [2], the IC50 was > 10 µM.

In turn, `CCOC(=O)c1sc(Nc2ccc(-c3cccc(OC)c3)cc2)nc1-c1ccccc1` returned a Retention_time in data set [1] of 10.45 min. Moreover, the IC50 in data set [2] and in data set [3] was > 10 µM each time.

Compound `CCOC(=O)c1sc(Nc2ccc3c(c2)CCC3)nc1-c1ccccc1` showed a Retention_time in data set [1] of 10.42 min. Moreover, in the data set on Rattus norvegicus, the Activity entry was “Non-toxic”. The IC50 in data set [2] was > 10 µM.

On to `CCOC(=O)c1sc(Nc2ccc(C)c(F)c2)nc1C(C)(C)C`, for which the Retention_time in data set [1] is on record as 11.92 min. Further, the half-inhibitory concentration (IC50) in data set [2] was > 10 µM.

`CCOC(=O)c1sc(Nc2ccc(C)c(C)c2)nc1NC(=O)C1CC1`: the Retention_time in data set [1] stood at 7.61 min. Also, the IC50 in data set [2] and in data set [3] was > 10 µM throughout.

`CCOC(=O)c1sc(Nc2ccc(C)c(Cl)c2)nc1C(C)(C)C` registered a Retention_time in data set [1] of 13.12 min. For the same compound, the IC50 in data set [2] is > 10 µM.

As to `CN(Cc1cnc2nc(N)nc(N)c2n1)c1ccc(C(=O)N[C@@H](CCC(=O)O)C(=O)O)cc1` [METHOTREXATE], the Activity entry in the data set with Rattus norvegicus is listed as “Non-toxic”.

As for `CCOC(=O)c1sc(Nc2ccc(C)c(Cl)c2)nc1C`, the Retention_time in data set [1] came out at 18.44 min. Besides, the IC50 in data set [2] is > 10 µM.

In turn, `CC(=O)c1sc(Nc2ccc3ccccc3c2)nc1C` registered a Retention_time in data set [1] of 13.39 min. Moreover, the concentration for half-maximal inhibition (IC50) stood at 0.871 µM in data set [2] and 0.562 µM in data set [3].

On to `CCOC(=O)c1sc(Nc2ccc(C(C)(C)C)cc2)nc1-c1ccccc1`, for which the Retention_time in data set [1] is recorded as 21.11 min. Further, the IC50 in data set [2] was > 10 µM.

Compound `CCOC(=O)c1sc(Nc2ccc(OCc3c(F)cccc3Cl)c(Cl)c2)nc1-c1ccccc1` gave a Retention_time in data set [1] of 9.95 min. The IC50 in data set [2] and in data set [3] was > 10 µM throughout.

On to `CCOC(=O)c1sc(Nc2ccc(C)c(Cl)c2)nc1-c1ccccc1`, for which the Retention_time in data set [1] amounted to 10.7 min. In addition, the concentration for half-maximal inhibition (IC50) in data set [2] is > 10 µM.

Take `CC(=O)c1sc(Nc2ccc(C)c(C)c2)nc1C`: the Retention_time in data set [1] is reported as 12.41 min. Moreover, the IC50 was determined as 1.49 µM in data set [2] and 3.85 µM in data set [3].

In the case of `CCOC(=O)c1sc(Nc2ccc(Cl)cc2)nc1-c1ccccc1`, the Retention_time in data set [1] is recorded as 9.69 min. Also, in data set [2], the half-inhibitory concentration (IC50) is > 10 µM.

`CCOC(=O)c1sc(Nc2ccc(Cl)c(C(F)(F)F)c2)nc1NC(=O)c1ccccc1`: in data set [1], the Retention_time is reported as 8.06 min. Further, the IC50 in data set [2] and in data set [3] was > 10 µM in each case.

For the compound `CC(=O)c1sc(Nc2ccc(C)c(F)c2)nc1C`, in data set [1], the Retention_time was 5.82 min. Besides, the IC50 in data set [2] and in data set [3] was > 10 µM throughout.

As to `CCOC(=O)c1sc(Nc2ccc(C)c(C)c2)nc1C(C)(C)C`, the Retention_time in data set [1] was found to be 12.16 min. Moreover, in data set [2], the IC50 was > 10 µM.

As to `CCOC(=O)c1sc(Nc2ccc(C)c(Cl)c2)nc1C1CC1`, the Retention_time in data set [1] is 11.22 min. In addition, the half-inhibitory concentration (IC50) in data set [2] was > 10 µM.

Consider `CCOC(=O)c1sc(Nc2ccc(C)c(C)c2)nc1C`, for which the Retention_time in data set [1] amounted to 16.56 min. The IC50 in data set [2] is > 10 µM.

`CCOC(=O)c1sc(Nc2ccc(Cl)c(C(F)(F)F)c2)nc1-c1ccccc1`: the Retention_time in data set [1] is recorded as 11.06 min. Moreover, in data set [2], the half-maximal inhibitory concentration (IC50) was > 10 µM.

As for `CCOC(=O)c1sc(Nc2ccc(C)c(F)c2)nc1-c1ccccc1`, the Retention_time in data set [1] was determined as 9.56 min. For the same compound, the concentration for half-maximal inhibition (IC50) in data set [2] is > 10 µM.

`CCOC(=O)c1sc(Nc2ccc(OCc3ccccc3)c(Cl)c2)nc1-c1ccccc1` registered a Retention_time in data set [1] of 10.92 min. For the same compound, the IC50 in data set [2] and in data set [3] was > 10 µM in each case.

In data set [1], `CC(=O)c1sc(Nc2ccc(Cl)c(C(F)(F)F)c2)nc1C` came in with a Retention_time of 16.17 min. The IC50 in data set [2] turned out to be 4.27 µM; in data set [3], 2.35 µM.

In turn, `CC(=O)c1sc(Nc2ccccc2)nc1C` returned a Retention_time in data set [1] of 9.94 min. Further, the IC50 in data set [2] and in data set [3] was > 10 µM in each case.

On to `CCOC(=O)c1sc(Nc2cc(Cl)cc(Cl)c2)nc1-c1ccccc1`, for which the Retention_time in data set [1] is reported as 11.83 min. Also, the half-maximal inhibitory concentration (IC50) in data set [2] is > 10 µM.

Compound `CCOC(=O)c1sc(Nc2ccc(Br)cc2)nc1C` came in with a Retention_time in data set [1] of 17.56 min. Also, half-maximal inhibition in data set [2] (IC50) required 2.45 µM.

In data set [1], `CC(=O)c1sc(Nc2ccc(Br)cc2)nc1C` displayed a Retention_time of 13.52 min. Moreover, the 50% inhibitory concentration (IC50) in data set [2] and in data set [3] was > 10 µM each time.

For the compound `CCOC(=O)c1sc(Nc2ccc(Cl)c(C(F)(F)F)c2)nc1NC(=O)C1CC1`, the Retention_time in data set [1] was found to be 7.75 min. For the same compound, the concentration for half-maximal inhibition (IC50) in data set [2] is > 10 µM.

In turn, `CCOC(=O)c1sc(Nc2ccc(C)c(C)c2)nc1C1CC1` gave a Retention_time in data set [1] of 10.18 min. Also, in data set [2], the half-maximal inhibitory concentration (IC50) is > 10 µM.

With `CCOC(=O)c1sc(Nc2ccc(C)c(C)c2)nc1N`, the Retention_time in data set [1] is on record as 9.57 min. Besides, the 50% inhibitory concentration (IC50) in data set [2] is > 10 µM.

In data set [1], `CCOC(=O)c1sc(Nc2c(F)cc(-c3cccc(OC)c3)cc2F)nc1-c1ccccc1` came in with a Retention_time of 9.51 min. In addition, in data set [2], the half-inhibitory concentration (IC50) was > 10 µM.

`CCOC(=O)c1sc(Nc2ccc(C)c(F)c2)nc1C1CC1` showed a Retention_time in data set [1] of 9.96 min. Further, the 50% inhibitory concentration (IC50) in data set [2] is > 10 µM.

For the compound `CCOC(=O)c1sc(Nc2ccc(Cl)c(C(F)(F)F)c2)nc1N`, the Retention_time in data set [1] was determined as 7.1 min. The IC50 in data set [2] and in data set [3] was > 10 µM throughout.

Compound `CCOC(=O)c1sc(Nc2ccc(OC)cc2)nc1-c1ccccc1` registered a Retention_time in data set [1] of 7.54 min. Besides, in data set [2], the IC50 is > 10 µM.

Turning to `CCOC(=O)c1sc(Nc2ccc3c(c2)CCCC3)nc1-c1ccccc1`, the Retention_time in data set [1] turned out to be 11.36 min. The half-maximal inhibitory concentration (IC50) in data set [2] was > 10 µM.

Regarding `CCOC(=O)c1sc(Nc2ccc3cc4ccccc4cc3c2)nc1-c1ccccc1`, the Retention_time in data set [1] was determined as 12.09 min. Besides, in data set [2], the 50% inhibitory concentration (IC50) is > 10 µM.

In data set [1], `CC(=O)c1sc(Nc2ccc(C(C)(C)C)cc2)nc1C` registered a Retention_time of 14.61 min. Also, the IC50 in data set [2] was > 10 µM; in data set [3] it was 3.65 µM.

For the compound `CCOC(=O)c1sc(Nc2ccc(Oc3ccccc3)c(Cl)c2)nc1-c1ccccc1`, the Retention_time in data set [1] turned out to be 11.24 min. Besides, the IC50 in data set [2] and in data set [3] was > 10 µM throughout.

As for `CCOC(=O)c1sc(Nc2ccc(Br)cc2C)nc1-c1ccccc1`, the Retention_time in data set [1] stood at 10.27 min. Also, the concentration for half-maximal inhibition (IC50) in data set [2] and in data set [3] was > 10 µM throughout.

On to `CCOC(=O)c1sc(Nc2ccc(-c3cccc(OC)c3)cc2F)nc1-c1ccccc1`, for which, in data set [1], the Retention_time came out at 10.96 min. Further, the IC50 in data set [2] and in data set [3] was > 10 µM each time.

As to `CCOC(=O)c1sc(Nc2ccc(C)c(F)c2)nc1C`, in data set [1], the Retention_time is recorded as 8.14 min. Also, in data set [2], the half-maximal inhibitory concentration (IC50) was > 10 µM.

With `CC(=O)c1sc(Nc2ccc(C)c(Cl)c2)nc1C`, the Retention_time in data set [1] was 14.38 min. The values for the IC50 in data set [2] and in data set [3] were 0.63 µM and 3.94 µM, respectively.

`CCOC(=O)c1sc(Nc2ccc(Br)c(C(F)(F)F)c2)nc1-c1ccccc1` yielded a Retention_time in data set [1] of 11.33 min. In data set [2], the IC50 is > 10 µM.

On to `CCOC(=O)c1sc(Nc2ccc(-c3ccccc3)cc2)nc1-c1ccccc1`, for which the Retention_time in data set [1] stood at 10.81 min. The IC50 in data set [2] and in data set [3] was > 10 µM in each case.

`CCOC(=O)c1sc(Nc2ccc(Cl)c(Cl)c2)nc1-c1ccccc1` had a Retention_time in data set [1] of 11.11 min. In addition, the IC50 in data set [2] is > 10 µM.

`CCOC(=O)c1sc(Nc2ccc(C)c(C)c2)nc1-c1ccccc1` yielded a Retention_time in data set [1] of 9.84 min. Moreover, the IC50 in data set [2] was > 10 µM.

In the case of `CCOC(=O)c1sc(Nc2ccc3ccccc3c2)nc1-c1ccccc1`, the 50% inhibitory concentration (IC50) in data set [2] is > 10 µM.

Compound `CC(=O)c1sc(Nc2ccc3cc4ccccc4cc3c2)nc1C` returned a Retention_time in data set [1] of 16.95 min. The IC50 in data set [2] and in data set [3] was > 10 µM each time.

In turn, `CCOC(=O)c1sc(Nc2ccccc2)nc1-c1ccccc1` showed a Retention_time in data set [1] of 7.96 min. For the same compound, the half-maximal inhibitory concentration (IC50) in data set [2] was > 10 µM.

Regarding `CCOC(=O)c1sc(Nc2ccc(C)c(C)c2)nc1NC(=O)c1ccccc1`, the Retention_time in data set [1] is 7.51 min. In addition, the half-maximal inhibitory concentration (IC50) in data set [2] was > 10 µM.

As to `CCOC(=O)c1sc(Nc2ccc(-c3ccccc3)cc2F)nc1-c1ccccc1`, the Retention_time in data set [1] is reported as 11.33 min. In addition, the IC50 in data set [2] and in data set [3] was > 10 µM in each case.

As to `CCOC(=O)c1sc(Nc2ccc3c(c2)OCO3)nc1-c1ccccc1`, the Retention_time in data set [1] was found to be 7.28 min. Also, the IC50 in data set [2] was > 10 µM.

In turn, `CCOC(=O)c1sc(Nc2ccc3ccccc3c2)nc1C` returned a Retention_time in data set [1] of 9.01 min. In data set [2], the IC50 was > 10 µM.
